What was measured:
[1] = molecular target: T1, F508del/R1070W-CFTR (Homo sapiens, UniProt P13569, DEL508-508/R1070W); assay: FLIPR membrane potential assay of CFTR channel activity in transfected HEK293 cells; assay type: cell-based; details: HEK293, 24 h; ARN23765 10 nM, VX-661 3 μM
T1 construct: CFTR identification in pull-down studies and analysis of full-length CFTR in protein maturation assays; expressed in transfected cells; host or cells: HEK293 (transient)
Procedure: HS-YFP-based assay for CFTR activity
Twenty-four hours after seeding on 96-well plates, CFBE41o- cells stably over-expressing F508del-CFTR and the HS-YFP were treated with test compounds at different concentrations in the 3 nM-10 µM range.1 Cells treated with vehicle alone (DMSO) and with ARN23765, respectively, served as negative and positive controls. The following day, cells were washed with PBS containing (in mM) 137 NaCl, 2.7 KCl, 8.1 Na2HPO4, 1.5 KH2PO4, 1.0 CaCl2, and 0.5 MgCl2. Cells were then incubated for 25 min with […] of PBS plus forskolin (20 µM) and VX-770 (1 µM) to maximally stimulate F508del-CFTR. Cells were then transferred to a microplate reader (FluoStar Galaxy; BMG Labtech, Offenburg, Germany) for CFTR activity determination. The plate reader was equipped with high-quality excitation (HQ500/20X: 500 ± 10 nm) and emission (HQ535/30M: 535 ± 15 nm) filters for YFP (Chroma Technology). Each assay comprised a continuous 14 s fluorescence reading, 2 s before and 12 s after injection of […] of an iodide-containing solution (PBS with Cl- replaced by I-; final I- concentration […]). Data were normalized to the initial background-subtracted fluorescence. […]
Cell lysates or eluates from pull-down experiments were resolved by SDS-PAGE on 4-8 % tris-acetate gels (EA0378BOX, Life technologies) and were transferred into PVDF membranes (Immobilion-E IEVH00005, Millipore). […] Images were acquired with Chemidoc MP (BIO-RAD laboratories) and quantified with Image J software.
CFTR Channel function analysis by fluorometric imaging plate reader functional (FLIPR) assay FLIPR assay was performed as previously described.3 Briefly, HEK293 cells were seeded in 96-well plates (black, flat bottom, Corning) and transfected with mutated CFTR constructs. […]
µM) for 24 h at 30 °C or 37 °C. […] The plate was then read in a fluorescence plate reader (SpectraMax i3, Molecular Devices) at 37 °C (excitation: 530 nm, emission: 560 nm). […] CFTR-mediated depolarization was detected as an increase in fluorescence. […] The peak changes in fluorescence were normalized to fluorescence immediately […]

[2] = molecular target: T1, F508del/R1070W-CFTR; assay: Protein maturation assay (WB, band C/(C+B)) in transfected HEK293 cells; assay type: cell-based; details: HEK293, 24 h; ARN23765 10 nM, VX-661 3 μM
Procedure: HEK293 cells were plated in 24-wells at around 80% of confluence and transfected with constructs coding for F508del-CFTR or mutants using JetPEI reagent (101000053, Polyplus Technology) following the manufacturer’s instructions. After 24 h, the correctors were added for a further 24 h. […] For binding site analysis experiments, the cells were kept either at 37 °C (Figure S8) or moved to 30 °C (Figure 9) during incubation with the selected correctors. VX-445 and corrector 3151 were mixed together as a control for maximal protein correction. DMSO (0.2%) was added to nontreated controls. After treatment, cells were lysed in RIPA buffer [50 mM tris-HCl pH 8, 150 mM NaCl, 1% NP40, 0.5% sodium deoxycolate, 0.1% SDS, 2.0 mM EDTA] and lysates were analyzed with WB, as described in the supplementary methods of the Supporting Information.

T1 sequence (P13569 with tags, fused parts or gaps DEL508-508/R1070W): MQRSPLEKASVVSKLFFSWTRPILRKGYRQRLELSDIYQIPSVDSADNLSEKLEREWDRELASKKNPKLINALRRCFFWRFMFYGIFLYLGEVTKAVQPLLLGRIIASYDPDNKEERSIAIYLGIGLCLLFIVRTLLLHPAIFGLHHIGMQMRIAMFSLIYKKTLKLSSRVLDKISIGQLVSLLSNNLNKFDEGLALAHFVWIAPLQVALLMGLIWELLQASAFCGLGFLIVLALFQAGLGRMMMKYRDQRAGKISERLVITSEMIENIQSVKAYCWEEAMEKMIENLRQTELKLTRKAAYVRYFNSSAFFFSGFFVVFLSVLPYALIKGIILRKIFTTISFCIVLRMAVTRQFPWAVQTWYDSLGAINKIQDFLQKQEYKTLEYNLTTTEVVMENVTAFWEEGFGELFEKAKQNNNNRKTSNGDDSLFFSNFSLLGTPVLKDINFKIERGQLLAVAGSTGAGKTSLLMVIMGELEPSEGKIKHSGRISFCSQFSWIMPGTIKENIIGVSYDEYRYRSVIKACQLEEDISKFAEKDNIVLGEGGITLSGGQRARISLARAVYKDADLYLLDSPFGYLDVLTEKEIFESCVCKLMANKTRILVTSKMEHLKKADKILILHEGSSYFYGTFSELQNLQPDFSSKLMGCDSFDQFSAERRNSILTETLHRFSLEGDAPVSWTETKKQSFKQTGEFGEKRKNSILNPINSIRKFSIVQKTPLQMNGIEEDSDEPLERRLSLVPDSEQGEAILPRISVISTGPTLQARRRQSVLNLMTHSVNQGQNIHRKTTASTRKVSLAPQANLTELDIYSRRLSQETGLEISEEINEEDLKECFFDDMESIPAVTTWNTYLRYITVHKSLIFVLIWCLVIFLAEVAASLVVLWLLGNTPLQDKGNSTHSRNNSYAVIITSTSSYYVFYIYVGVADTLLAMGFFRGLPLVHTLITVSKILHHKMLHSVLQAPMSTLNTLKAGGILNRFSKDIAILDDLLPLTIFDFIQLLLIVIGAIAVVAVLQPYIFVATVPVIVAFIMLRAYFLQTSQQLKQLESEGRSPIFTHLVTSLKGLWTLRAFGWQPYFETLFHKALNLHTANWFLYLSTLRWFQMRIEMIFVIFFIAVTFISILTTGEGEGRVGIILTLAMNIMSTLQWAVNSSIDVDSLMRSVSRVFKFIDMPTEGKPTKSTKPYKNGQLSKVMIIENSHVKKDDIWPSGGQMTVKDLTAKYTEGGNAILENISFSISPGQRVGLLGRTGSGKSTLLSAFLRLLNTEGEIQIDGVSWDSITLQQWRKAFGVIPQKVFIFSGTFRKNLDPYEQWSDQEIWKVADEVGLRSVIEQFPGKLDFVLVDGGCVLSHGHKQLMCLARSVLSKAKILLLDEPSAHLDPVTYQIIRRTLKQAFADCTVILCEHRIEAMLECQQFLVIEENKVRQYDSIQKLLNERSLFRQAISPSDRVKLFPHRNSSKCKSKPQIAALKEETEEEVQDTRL

In the case of CC(C)(CO)c1cc2cc(NC(=O)C3(c4ccc5c(c4)OC(F)(F)O5)CC3)c(F)cc2n1C[C@@H](O)CO [VX-661, tezacaftor, reference compound], the “F508del/R1070W channel activity (FLIPR)” value [1] is reported as “further enhanced” and the F508del/R1070W protein maturation [2] is reported as “further enhanced”.

Reference: article PMC11873939, “Target Identification with Live-Cell Photoaffinity Labeling and Mechanism of Action Elucidation of ARN23765, a Highly Potent CFTR Corrector” (Journal of Medicinal Chemistry, 2025)
